In US9469632B2, “6-substituted-3H-1,3-benzothiazol-2-one compounds as TARP-gamma 8 dependent AMPA receptor antagonists” (Eli Lilly and Company, priority 2014, dated 2016):
Values joined by “and” are separate entries in the source; they are usually repeats but may differ in a detail not shown here. Equal entries are not always repeated.

Key:
[1] = target: T1, TARP γ8 dependent GluA1 flop receptors (Homo sapiens, UniProt P42261+Q8WXS5); test: FLIPR antagonist functional assay, GluA1 flop co-expressed with TARP γ8 in CHO-S cells; format: cell-based; settings: glutamate 45 μM plus CTZ 20 μM, read-out: relative IC50, inhibition of glutamate plus CTZ activation of TARP γ8 dependent GluA1 flop receptors
T1 construct: expressed in transfected cells; host or cells: CHO-S (Invitrogen), transient transfection
T1 sequence (P42261 19-906): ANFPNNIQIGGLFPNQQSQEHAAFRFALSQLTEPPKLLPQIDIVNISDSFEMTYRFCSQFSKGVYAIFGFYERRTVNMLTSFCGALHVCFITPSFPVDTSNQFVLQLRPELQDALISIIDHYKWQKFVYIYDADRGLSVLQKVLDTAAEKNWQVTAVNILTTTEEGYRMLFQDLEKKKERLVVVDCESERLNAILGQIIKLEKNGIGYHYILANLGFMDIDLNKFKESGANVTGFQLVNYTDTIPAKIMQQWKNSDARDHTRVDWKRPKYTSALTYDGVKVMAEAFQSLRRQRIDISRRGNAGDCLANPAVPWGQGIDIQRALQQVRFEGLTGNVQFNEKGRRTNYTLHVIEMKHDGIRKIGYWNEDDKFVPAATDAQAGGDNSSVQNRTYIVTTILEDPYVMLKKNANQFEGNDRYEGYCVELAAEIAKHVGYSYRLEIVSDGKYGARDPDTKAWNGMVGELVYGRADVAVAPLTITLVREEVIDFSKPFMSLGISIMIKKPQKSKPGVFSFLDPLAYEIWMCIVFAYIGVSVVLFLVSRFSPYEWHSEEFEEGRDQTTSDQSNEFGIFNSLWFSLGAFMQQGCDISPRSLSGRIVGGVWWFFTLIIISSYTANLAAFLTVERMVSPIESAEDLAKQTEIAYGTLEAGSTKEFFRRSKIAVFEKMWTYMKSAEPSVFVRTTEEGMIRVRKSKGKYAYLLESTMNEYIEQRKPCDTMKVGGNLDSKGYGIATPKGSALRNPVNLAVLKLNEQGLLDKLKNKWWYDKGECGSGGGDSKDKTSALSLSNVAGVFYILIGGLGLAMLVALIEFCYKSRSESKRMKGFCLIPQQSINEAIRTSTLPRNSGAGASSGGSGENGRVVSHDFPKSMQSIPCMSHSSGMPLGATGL
T1 sequence (Q8WXS5 whole entry): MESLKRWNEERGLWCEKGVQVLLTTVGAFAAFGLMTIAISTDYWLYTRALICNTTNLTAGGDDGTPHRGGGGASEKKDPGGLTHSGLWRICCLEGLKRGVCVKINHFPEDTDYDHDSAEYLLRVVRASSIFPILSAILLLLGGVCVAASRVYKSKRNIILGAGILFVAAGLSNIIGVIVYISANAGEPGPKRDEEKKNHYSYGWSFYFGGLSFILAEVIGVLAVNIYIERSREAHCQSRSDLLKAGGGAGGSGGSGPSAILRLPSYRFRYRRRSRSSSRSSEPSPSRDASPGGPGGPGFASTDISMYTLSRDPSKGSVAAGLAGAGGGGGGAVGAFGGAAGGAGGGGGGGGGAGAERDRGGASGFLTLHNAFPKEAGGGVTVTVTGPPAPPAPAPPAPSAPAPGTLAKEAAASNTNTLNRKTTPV
Experimental: (§1) Briefly, CHO-S (Invitrogen) cells are grown in suspension in 50/50 custom media to a density of 1×10^7 cells/ml. (50/50 custom media is a low calcium media made as a 1:1 (v/v) mixture of CD CHO media (Gibco #10743) and a custom complete media. The custom complete media is made by adding 0.40 mg/L tropolone, 5.00 mg/L insulin, 20 mM HEPES, and 0.075% Pluronic® F68 to a custom basal media having the following formula: (values as mg/L unless otherwise specified) 11.01 anhydrous calcium chloride, 0.050 ferric nitrate-9H2O, 0.420 ferrous sulfate-7H2O, 28.64 anhydrous magnesium chloride, 48.84 anhydrous magnesium sulfate, 312.14 KCl, 5505.96 NaCl, 62.57 monobasic sodium phosphate, 71.28 anhydrous dibasic sodium phosphate, 0.432 zinc sulfate-7H2O, 10.0 ethanolamine HCl, 6000 D-glucose (dextrose), 0.210 DL lipoic acid thioctic, 0.081 putrescine 2 HCl, 4.78 sodium hypoxanthine, 220.24 sodium pyruvate, 0.730 thymidine, 8.90 L-alanine, 211.23 L-arginine HCl, 15.02 L-asparagine H2O, 13.31 L-aspartic acid, 62.67 cystine 2 HCl, 7.360 L-glutamic acid, 146.16 L-Glutamine, 30.0 gylicine, 42.04 L-histidine HCl 2 H2O, 105.11 L-isoluecine, 105.11 L-luecine, 146.16 L-lysine HCl, 30.03 L-methionine, 66.07 L-phenylalanine, 17.27 L-proline, 42.04 L-serine, 95.1 L-threonine, 16.02 L-typtophan, 104.11 L-tyrosine disodium salt, 94.1 L-valine, 8.99 choline chloride, 4.00 folic acid, 12.61 I inositol, 4.00 niacinamide, 4.00 pyridoxal HCl, 0.031 pyridoxine HCl, 0.400 riboflavin, 4.00 sodium pantothenate, 4.00 thiamine HCl, 0.680 vitamin B 12, and 2200 sodium bicarbonate.) Cells are centrifuged at 1000×g for […] and resuspended in fresh 50/50 custom media at 2×10^6 cells/ml. For batch transfection, 2 mg of total DNA(s) is used for each liter of cells. For GluA1-γ8 transfection of CHO-S cells, human GluA1 Qflop-Cacng8-pBudCE4.1 DNA (Qiagen) and human EAAT3 pAN104 DNA (Qiagen, a […]) are mixed in a ratio of 2:3. For GluA1-γ2 transfection of CHO-S cells, human GluA1 Qflop-Cacng2-pBudCE4.1 (Qiagen) is used. For GluA1 flip transfection of CHO-S cells, human GluA1 flip pcDNA3.1 DNA (Qiagen) is used. DNA(s) and FreeStyle™ MAX Reagent (Invitrogen cat#16447-500) are added to basal custom media (see above) in the proportions of 10 μg total DNA: 10 plFreeStyleTm MAX Reagent: 1 ml media, to form a DNA complex. […]
(§2) Frozen transfected CHO-S cells expressing AMPA receptors are thawed and plated in Dulbecco's Modified Eagle Media (DMEM media) (Gibco, cat#11960) containing 5% dialyzed Fetal Bovine Serum (Gibco, cat#26400-036) and 20 mM HEPES at 50,000 cells per well in 384-well Poly-D-lysine coated plates (Becton Dickinson, cat#354663) and cultured overnight at 37° C. On the day of an experiment, two fluorescence dye loading buffers are prepared. […]

[2] = target: T2, TARP γ2 dependent GluA1 flop receptors (Homo sapiens, UniProt P42261+Q9Y698); test: FLIPR antagonist functional assay, GluA1 flop co-expressed with TARP γ2 in CHO-S cells; format: cell-based; settings: glutamate 45 μM plus CTZ 20 μM, assay limit of 9260 nM
T2 construct: expressed in transfected cells; host or cells: CHO-S (Invitrogen), transient transfection
T2 sequence (P42261 19-906): as the sequence (P42261 19-906) above
T2 sequence (Q9Y698 whole entry): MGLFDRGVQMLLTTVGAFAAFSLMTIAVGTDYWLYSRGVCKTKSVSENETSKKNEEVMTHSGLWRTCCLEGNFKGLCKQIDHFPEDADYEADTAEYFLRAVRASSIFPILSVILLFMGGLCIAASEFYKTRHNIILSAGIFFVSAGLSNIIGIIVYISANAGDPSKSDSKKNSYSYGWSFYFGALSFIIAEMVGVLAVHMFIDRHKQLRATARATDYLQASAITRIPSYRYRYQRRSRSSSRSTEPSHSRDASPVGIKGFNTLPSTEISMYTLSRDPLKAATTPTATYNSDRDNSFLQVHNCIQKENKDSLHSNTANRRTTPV
Experimental: as §1, §2

[3] = target: T3, GluA1 flip isoform devoid of TARP (Homo sapiens, UniProt P42261); test: FLIPR antagonist functional assay, GluA1 flip expressed without TARP in CHO-S cells; format: cell-based; settings: glutamate 45 μM plus CTZ 20 μM, assay limit of 9260 nM
T3 construct: expressed in transfected cells; host or cells: CHO-S (Invitrogen), transient transfection
T3 sequence (P42261 19-906 isoform P42261-2 limits assumed): as the sequence (P42261 19-906) above, with N740G, N750S, L754V, N760S, G772K, G773D, G774S, D775G counted along it
Experimental: as §1, §2

formalin induced pain = test: Manual formalin induced pain model; format: in vivo; settings: mice, p.o.
Experimental: The manual formalin induced pain model is well known for screening compounds for analgesic properties (Mogil J. S. et al., Heritability of nociception I: Responses of 11 inbred mouse strains on 12 measures of nociception. Pain 80 (1999) 67-82). The assay is performed in Plexiglas® boxes approx. 10 cm×10 cm×10 cm in size. A minor placed at the back of the cage allows the unhindered observation of the formalin injected paw. Non-fasted male mice (Harlan (HSD) CD1-Icr) are placed individually in the cubicles at least 60 min. prior to the experiment. All testing is conducted between 08:00 and 16:00 hr. and the testing room temperature is maintained at 21-23° C. […] Formalin (20 uL of a 5% solution in 0.9% saline) is injected subcutaneously into the plantar surface of the left hind paw with a 27 gauge needle. Observation starts immediately after the formalin injection. Formalin induced pain is quantified by recording the number of seconds each licking event lasts in 5 min intervals. The pain scoring is measured for 60 min. after the formalin injection. Two phases of pain behavior are observed as previously described (Wheeler-Aceto, H., Porreca, F. and Cowan, A., The rat paw formalin test: comparison of noxious agents, Pain 40 (1990) 229-238). The early phase starts immediately after the formalin injection and lasts approximately 5 min., followed by the late phase that starts between minutes 10-15 with a maximum response typically observed around 25-40 min after the formalin injection. After the 60 min. observation period, animals are sacrificed with CO2 followed by cervical dislocation. Of the different scoring parameters reported for the formalin test, the total time spent licking and biting the injected paw is considered to be most relevant. (Abbott et al., The formalin test: scoring properties of the first and second phases of the pain response in rats, Pain 60 (1995) 91-102; Coderre et al., The formalin test: a validation of the weighted-scores method of the behavioral pain rating, Pain 54 (1993) 43-50).) The early phase score is the sum of time spent licking (seconds) from time 0 to 5 min. The late phase score is obtained by adding the total number of seconds spent licking from minute 15 to min 55 of the observation period. Data are presented as means with standard errors of means (±SEM). Data are evaluated by one-way analysis of variance (ANOVA) and the appropriate contrasts analyzed by Dunnett “t” test for two sided comparisons. Differences are considered to be significant if the P-value is less than 0.05. (Abbott, supra.; Coderre, supra.; and Wheeler-Aceto, supra.)

Compound	IC50 [1]	IC50 [2]	IC50 [3]	Percent reversal of Late Phase Licking (formalin induced pain; 1 mg/Kg)	Percent reversal of Late Phase Licking (formalin induced pain; 3 mg/Kg)	Percent reversal of Late Phase Licking (formalin induced pain; 10 mg/Kg)	Percent reversal of Late Phase Licking (formalin induced pain; 30 mg/Kg)	Percent reversal of Late Phase Licking (formalin induced pain; 60 mg/Kg)	Percent reversal of Late Phase Licking (formalin induced pain; positive control 80 mg/Kg Tramadol, one value per experiment (Examples 3, 27, 30, 55))
CC(c1ccc2[nH]c(=O)sc2c1)c1ccn(-c2ccc(N3CCC(O)CC3)cn2)n1 (single isomer, unassigned) [Example 3, 6-(1-(1-(5-(4-hydroxypiperidin-1-yl)pyridin-2-yl)-1H-pyrazol-3-yl)ethyl)benzo[d]thiazol-2(3H)-one]	0.0911 ± 0.0481 µM	> 9.26 µM	> 9.26 µM	32.3%	43.8%	66.2%			
C[C@@H](c1ccc2[nH]c(=O)sc2c1)c1ccn(-c2ccc(CCO)cn2)n1 (single isomer, unassigned) [Example 27]	0.0616 ± 0.0235 µM	> 9.26 µM	> 9.26 µM			24.27%	57.15%	62.14%	
CC(c1ccc2[nH]c(=O)sc2c1)c1ccn(-c2ccc(CCC(C)(C)O)cn2)n1 (single isomer, unassigned) [Example 30]					8.88%	11.77%	47.77%	62.14%	
CC(c1ccc2[nH]c(=O)sc2c1)c1csc(-c2ccccn2)n1 (single isomer, unassigned) [Example 53, 6-[1-(2-pyridin-2-yl-thiazol-4-yl)-ethyl]-3H-benzothiazol-2-one]	0.0656 ± 0.0149 µM	> 9.26 µM	> 9.26 µM						
CC(=O)c1ccc(-c2csc(C(C)c3ccc4[nH]c(=O)sc4c3)n2)nc1 (single isomer, unassigned) [Example 54, 6-[1-[4-(5-acetyl-2-pyridyl)thiazol-2-yl]ethyl]-3H-1,3-benzothiazol-2-one]	0.0826 ± 0.0562 µM	> 9.26 µM	> 9.26 µM						
CC(O)COCc1ccc(-n2ccc(C(C)c3ccc4[nH]c(=O)sc4c3)n2)nc1 (single isomer, unassigned) [Example 55, 6-[1-[1-[5-(2-hydroxypropoxymethyl)-2-pyridyl]pyrazol-3-yl]ethyl]-3H-1,3-benzothiazol-2-one]					25.64%	31.08%	63.47%		
COc1cccc(C2(O)CCCCC2CN(C)C)c1 (centres unmarked) [Tramadol, tramadol, reference compound]									94.7% and 86.97% and 57.96% and 81.84%
